From ChEMBL document CHEMBL3045770, “Design and synthesis of some thieno[2,3-c]pyridazine derivatives of expected anticancer activity” (2013)

What was measured:
Format in all cases: functional
[1] = test system: UACC-62; test: Cytotoxicity against Homo sapiens (human) UACC62 assessed as cell growth at 10 uM after 48 hr by SRB assay relative to control; settings: UACC-62, 48 h, read-out: Activity
[2] = test system: BT-549; test: Cytotoxicity against Homo sapiens (human) BT549 assessed as cell growth at 10 uM after 48 hr by SRB assay relative to control; settings: BT-549, 48 h, read-out: Activity
[3] = test system: CCRF-CEM; test: Cytotoxicity against Homo sapiens (human) CCRF-CEM assessed as cell growth at 10 uM after 48 hr by SRB assay relative to control; settings: read-out: Activity
[4] = test system: SF-539; test: Cytotoxicity against Homo sapiens (human) SF539 assessed as cell growth at 10 uM after 48 hr by SRB assay relative to control; settings: SF-539, 48 h, read-out: Activity
[5] = test system: T47D; test: Cytotoxicity against Homo sapiens (human) T47D assessed as cell growth at 10 uM after 48 hr by SRB assay relative to control; settings: read-out: Activity
[6] = test system: NCI-H322M; test: Cytotoxicity against Homo sapiens (human) NCI-H322M assessed as cell growth at 10 uM after 48 hr by SRB assay relative to control; settings: read-out: Activity
[7] = test system: SR; test: Cytotoxicity against Homo sapiens (human) SR assessed as cell growth at 10 uM after 48 hr by SRB assay relative to control; settings: read-out: Activity
[8] = test system: MOLT-4; test: Cytotoxicity against Homo sapiens (human) MOLT4 assessed as cell growth at 10 uM after 48 hr by SRB assay relative to control; settings: MOLT-4, 48 h, read-out: Activity
[9] = test system: NCI-H226; test: Cytotoxicity against Homo sapiens (human) NCI-H226 assessed as cell growth at 10 uM after 48 hr by SRB assay relative to control; settings: NCI-H226, 48 h, read-out: Activity
[10] = test system: Hs-578T; test: Cytotoxicity against Homo sapiens (human) Hs 578T assessed as cell growth at 10 uM after 48 hr by SRB assay relative to control; settings: read-out: Activity
[11] = test system: Malme-3M; test: Cytotoxicity against Homo sapiens (human) MALME-3M assessed as cell growth at 10 uM after 48 hr by SRB assay relative to control; settings: read-out: Activity
[12] = test system: 786-0; test: Cytotoxicity against Homo sapiens (human) 786-0 assessed as cell growth at 10 uM after 48 hr by SRB assay relative to control; settings: 786-0, 48 h, read-out: Activity
[13] = test system: RPMI-8226; test: Cytotoxicity against Homo sapiens (human) RPMI8226 assessed as cell growth at 10 uM after 48 hr by SRB assay relative to control; settings: RPMI-8226, 48 h, read-out: Activity
[14] = test system: TK-10; test: Cytotoxicity against Homo sapiens (human) TK10 assessed as cell growth at 10 uM after 48 hr by SRB assay relative to control; settings: TK-10, 48 h, read-out: Activity
[15] = test system: HCC 2998; test: Cytotoxicity against Homo sapiens (human) HCC2998 assessed as cell growth at 10 uM after 48 hr by SRB assay relative to control; settings: HCC 2998, 48 h, read-out: Activity
[16] = test system: HOP-92; test: Cytotoxicity against Homo sapiens (human) HOP92 assessed as cell growth at 10 uM after 48 hr by SRB assay relative to control; settings: HOP-92, 48 h, read-out: Activity
[17] = test system: SF-295; test: Cytotoxicity against Homo sapiens (human) SF295 assessed as cell growth at 10 uM after 48 hr by SRB assay relative to control; settings: SF-295, 48 h, read-out: Activity
[18] = test system: KM12; test: Cytotoxicity against Homo sapiens (human) KM12 assessed as cell growth at 10 uM after 48 hr by SRB assay relative to control; settings: KM12, 48 h, read-out: Activity
[19] = test system: OVCAR-5; test: Cytotoxicity against Homo sapiens (human) OVCAR5 assessed as cell growth at 10 uM after 48 hr by SRB assay relative to control; settings: OVCAR-5, 48 h, read-out: Activity
[20] = test system: ACHN; test: Cytotoxicity against Homo sapiens (human) ACHN assessed as cell growth at 10 uM after 48 hr by SRB assay relative to control; settings: read-out: Activity
[21] = test system: U-251; test: Cytotoxicity against Homo sapiens (human) U251 assessed as cell growth at 10 uM after 48 hr by SRB assay relative to control; settings: U-251, 48 h, read-out: Activity
[22] = test system: A549; test: Cytotoxicity against Homo sapiens (human) A549 assessed as cell growth at 10 uM after 48 hr by SRB assay relative to control; settings: A549, 48 h, read-out: Activity

Oc1c(-c2nnc(-c3ccccc3)o2)sc2nnc(-c3ccccc3)c(-c3ccccc3)c12
growth at 10 µM [1]: 51.1% | growth at 10 µM [2]: 74.9% | growth at 10 µM [3]: 47.7% | growth at 10 µM [4]: 68.5% | growth at 10 µM [5]: 81.1% | growth at 10 µM [6]: 42.5% | growth at 10 µM [7]: 46.8% | growth at 10 µM [8]: 47.9% | growth at 10 µM [9]: 85% | growth at 10 µM [10]: 97% | growth at 10 µM [11]: 83.5% | growth at 10 µM [12]: 79.9% | growth at 10 µM [13]: 64.8% | growth at 10 µM [14]: 90.6% | growth at 10 µM [15]: 70.4% | growth at 10 µM [16]: 81.7% | growth at 10 µM [17]: 42.9% | growth at 10 µM [18]: 72.3% | growth at 10 µM [19]: 106% | growth at 10 µM [20]: 67%

CCOC(=O)c1c(Nc2ccc(S(N)(=O)=O)cc2)nnc(-c2ccccc2)c1-c1ccccc1
growth at 10 µM [1]: 90.2% | growth at 10 µM [2]: 95% | growth at 10 µM [3]: 81.8% | growth at 10 µM [21]: 95% | growth at 10 µM [4]: 108% | growth at 10 µM [5]: 91.3% | growth at 10 µM [7]: 76.1% | growth at 10 µM [8]: 78.2% | growth at 10 µM [9]: 102% | growth at 10 µM [22]: 90.9% | growth at 10 µM [10]: 116% | growth at 10 µM [13]: 80.9% | growth at 10 µM [14]: 108% | growth at 10 µM [15]: 96.8% | growth at 10 µM [16]: 86.5% | growth at 10 µM [17]: 88.5% | growth at 10 µM [18]: 104% | growth at 10 µM [19]: 116% | growth at 10 µM [20]: 97.6%

CSc1nnc(-c2sc3nnc(-c4ccccc4)c(-c4ccccc4)c3c2O)o1
growth at 10 µM [1]: 58.9% | growth at 10 µM [2]: 74.1% | growth at 10 µM [3]: 47.4% | growth at 10 µM [21]: 62.9% | growth at 10 µM [4]: 84.6% | growth at 10 µM [5]: 75% | growth at 10 µM [7]: 62.5% | growth at 10 µM [8]: 61.9% | growth at 10 µM [9]: 87.7% | growth at 10 µM [22]: 80.5% | growth at 10 µM [10]: 98.4% | growth at 10 µM [12]: 88.7% | growth at 10 µM [13]: 67.2% | growth at 10 µM [14]: 100% | growth at 10 µM [17]: 40.9% | growth at 10 µM [18]: 72.9% | growth at 10 µM [19]: 101% | growth at 10 µM [20]: 83.6%

CC1=NN(C(=O)c2sc3nnc(-c4ccccc4)c(-c4ccccc4)c3c2O)C(=O)C1
growth at 10 µM [1]: 77.4% | growth at 10 µM [2]: 104% | growth at 10 µM [3]: 49.5% | growth at 10 µM [21]: 71.7% | growth at 10 µM [4]: 109% | growth at 10 µM [5]: 82.2% | growth at 10 µM [7]: 68.6% | growth at 10 µM [8]: 67.8% | growth at 10 µM [9]: 91.9% | growth at 10 µM [22]: 84.5% | growth at 10 µM [10]: 89.6% | growth at 10 µM [12]: 65.9% | growth at 10 µM [13]: 59.3% | growth at 10 µM [14]: 103% | growth at 10 µM [15]: 59.7% | growth at 10 µM [16]: 69.5% | growth at 10 µM [17]: 48.8% | growth at 10 µM [18]: 71.3% | growth at 10 µM [19]: 117% | growth at 10 µM [20]: 73.2%

CCOC(=O)c1c(Nc2ccc(S(=O)(=O)Nc3nccs3)cc2)nnc(-c2ccccc2)c1-c1ccccc1
growth at 10 µM [1]: 92.9% | growth at 10 µM [2]: 98.9% | growth at 10 µM [3]: 91.3% | growth at 10 µM [21]: 98.5% | growth at 10 µM [4]: 117% | growth at 10 µM [5]: 104% | growth at 10 µM [7]: 76.2% | growth at 10 µM [8]: 79.3% | growth at 10 µM [9]: 102% | growth at 10 µM [22]: 110% | growth at 10 µM [10]: 118% | growth at 10 µM [12]: 109% | growth at 10 µM [13]: 96.5% | growth at 10 µM [14]: 109% | growth at 10 µM [16]: 84.3% | growth at 10 µM [17]: 101% | growth at 10 µM [18]: 114% | growth at 10 µM [19]: 117% | growth at 10 µM [20]: 102%

CNc1nnc(-c2sc3nnc(-c4ccccc4)c(-c4ccccc4)c3c2O)s1
growth at 10 µM [1]: 97.5% | growth at 10 µM [2]: 101% | growth at 10 µM [3]: 110% | growth at 10 µM [4]: 109% | growth at 10 µM [5]: 97.6% | growth at 10 µM [6]: 106% | growth at 10 µM [7]: 78.2% | growth at 10 µM [8]: 93.3% | growth at 10 µM [9]: 106% | growth at 10 µM [10]: 109% | growth at 10 µM [11]: 111% | growth at 10 µM [12]: 108% | growth at 10 µM [13]: 113% | growth at 10 µM [14]: 108% | growth at 10 µM [15]: 98.4% | growth at 10 µM [16]: 116% | growth at 10 µM [17]: 91.7% | growth at 10 µM [18]: 126% | growth at 10 µM [19]: 96.5% | growth at 10 µM [20]: 107%

Oc1c(-c2n[nH]c(=S)o2)sc2nnc(-c3ccccc3)c(-c3ccccc3)c12
growth at 10 µM [1]: 94.3% | growth at 10 µM [2]: 99.5% | growth at 10 µM [3]: 96.1% | growth at 10 µM [21]: 106% | growth at 10 µM [4]: 106% | growth at 10 µM [5]: 105% | growth at 10 µM [7]: 83.4% | growth at 10 µM [8]: 91% | growth at 10 µM [9]: 91.5% | growth at 10 µM [22]: 107% | growth at 10 µM [10]: 121% | growth at 10 µM [12]: 108% | growth at 10 µM [13]: 102% | growth at 10 µM [14]: 103% | growth at 10 µM [16]: 72.3% | growth at 10 µM [17]: 112% | growth at 10 µM [18]: 119% | growth at 10 µM [19]: 102% | growth at 10 µM [20]: 92.4%

Oc1c(-c2nnc(SCc3ccccc3)o2)sc2nnc(-c3ccccc3)c(-c3ccccc3)c12
growth at 10 µM [1]: 78.6% | growth at 10 µM [2]: 107% | growth at 10 µM [3]: 66.8% | growth at 10 µM [21]: 122% | growth at 10 µM [4]: 122% | growth at 10 µM [5]: 104% | growth at 10 µM [6]: 93.6% | growth at 10 µM [7]: 106% | growth at 10 µM [8]: 86% | growth at 10 µM [9]: 101% | growth at 10 µM [10]: 135% | growth at 10 µM [12]: 105% | growth at 10 µM [13]: 92.9% | growth at 10 µM [14]: 92.9% | growth at 10 µM [15]: 96.5% | growth at 10 µM [16]: 52.5% | growth at 10 µM [18]: 107% | growth at 10 µM [19]: 98.8% | growth at 10 µM [20]: 104%
